{"source": "patent US9682962B2", "about": "“Pyrazolyl pyrimidinamine compound and application thereof” (SHENYANG SINOCHEM AGROCHEMICALS R&D CO., LTD., priority 2013, dated 2017)", "key": {"wheat powdery mildew": {"test_system": "wheat powdery mildew", "assay": "Protectant activity in vivo (whole plant), wheat powdery mildew", "details": "protectant activity", "description": "(§1) The method is as followed: The whole plant is used in this test. The compound is dissolved in a proper solvent to get mother solution. The proper solvent is selected from acetone, methanol, DMF and so on according to their dissolving capability to the sample. […] The testing solution is sprayed to the host plant by a special plant sprayer. The plant is inoculated with fungus after 24 hours. According to the infecting characteristic of fungus, the plant is stored in a humidity chamber and then transferred into greenhouse after infection is finished. And the other plants are placed in greenhouse directly."}, "[1]": {"test_system": "Green peach aphids (Myzus Persicae Sulzer)", "assay": "Bioactivity test against green peach aphid (airbrush foliar spray)", "format": "in vivo", "description": "(§2) Compounds were dissolved in mixed solvent (acetone:methanol=1:1), and diluted to required concentration with water containing 0.1% of tween 80.\n(§3) Diamond back moth, armyworm, peach aphid and carmine spider mite were used as targets and the method of spraying by airbrush was used for determination of insecticidal bioassays.\nMethod: Filter papers were put in culture dishes (Diameter=6 cm), and water was dripped on filter papers for preserving moisture. Green peach aphids (Myzus Persicae Sulzer) were maintained on cabbage. Leaves (Diameter=3 cm) of approximately 15-30 aphids were put in the culture dishes. Bioactivity tests were used the method of Airbrush Foliar Spray, pressure=10 psi (0.7 kg/cm2), spray volume=0.5 mL. The studies were conducted at […] 25±1 C in incubator cabinets with 60±5% RH. Survey the survival aphids after 48 h and calculate the death rates."}, "carmine spider mite": {"test_system": "carmine spider mite", "assay": "Bioactivity test against carmine spider mite (airbrush spray)", "format": "in vivo", "details": "10 ppm, after 72 hrs", "description": "as §2, §3\nThe method: shoots with two true leaves in pot were taken, the healthy adults of carmine spider mite were inoculated to the leaves. The adults were counted and then sprayed with airbrush at the pressure of 0.7 kg/cm^2 and at dose of 0.5 ml. 3 replicates were set for each treatment. And then they were maintained in standard observation room. Scores were conducted and mortalities were calculated after 72 hrs."}, "diamond back moth": {"test_system": "diamond back moth", "assay": "Bioactivity test against diamond back moth (airbrush spray)", "format": "in vivo", "description": "as §2, §3\nThe method of spraying by airbrush: The cabbage leaves were made into plates of 2 cm diameter by use of punch. A test solution (0.5 ml) was sprayed by airbrush at the pressure of 0.7 kg/cm^2 to both sides of every plate. 10 Second instar larvae were put into the petri-dishes after the leaf disc air-dried and 3 replicates were set for each treatment. Then the insects were maintained in observation room (25° C., 60˜70% R.H.). Scores were conducted and mortalities were calculated after 72 h."}, "corn rust": {"test_system": "corn rust", "assay": "Protectant activity in vivo (whole plant), corn rust", "details": "1.6 ppm", "description": "as §1"}}, "data": [{"smiles": "FC(F)c1ncnc(NCCc2cnn(-c3ccc(Cl)cc3Cl)c2)c1Cl", "note": "[Compound 817]", "values": [{"measurement": "control effect against wheat powdery mildew (%)", "setting": "wheat powdery mildew; 6.25 mg/L", "result": 100, "unit": "%"}, {"measurement": "control effect against wheat powdery mildew (%)", "setting": "wheat powdery mildew; 25 mg/L", "result": 100, "unit": "%"}, {"measurement": "control effect against wheat powdery mildew (%)", "setting": "wheat powdery mildew; 100 mg/L", "result": 100, "unit": "%"}, {"measurement": "control effect against wheat powdery mildew (%)", "setting": "wheat powdery mildew; 400 mg/L", "result": 100, "unit": "%"}, {"measurement": "Insecticidal activity against peach aphid (%)", "setting": "[1]; 100 mg/L", "result": 100, "unit": "%"}, {"measurement": "Insecticidal activity against peach aphid (%)", "setting": "[1]; 600 mg/L", "result": 100, "unit": "%"}, {"measurement": "control against carmine spider mite (mortality)", "setting": "carmine spider mite", "result": 72, "unit": "%"}, {"measurement": "Insecticidal activity against diamond back moth (%)", "setting": "diamond back moth; 10 mg/L", "result": 21, "unit": "%"}, {"measurement": "Insecticidal activity against diamond back moth (%)", "setting": "diamond back moth; 100 mg/L", "result": 70, "unit": "%"}, {"measurement": "Insecticidal activity against diamond back moth (%)", "setting": "diamond back moth; 600 mg/L", "result": 100, "unit": "%"}, {"measurement": "control against diamond back moth (mortality)", "setting": "diamond back moth; 600 ppm, after 72 h", "result": 100, "unit": "%"}, {"measurement": "protectant activity against corn rust in vivo", "setting": "corn rust", "result": 70, "unit": "%"}]}]}
